{"source": "patent US8507547B2", "about": "“Anti-fatigue agents and oral compositions containing andrographolide as active ingredient” (Suntory Holdings Limited, priority 2007, dated 2013)", "tested_on": "Sprague Dawley rats", "assay": "Forced exercise test (amount of spontaneous exercise after treadmill exercise stress)", "assay_type": "in vivo", "conditions": "2 mg per kilogram of body weight orally after 3 hours treadmill exercise stress; FIG. 3", "experimental": "The third test is measurement of an amount of spontaneous exercise in a forced exercise test. This is described in detail below in Example 3. Rats were forced to exercise on a treadmill, and thereafter the test substance was administered. Then, the amount of spontaneous exercise of the animal was measured. Since this animal model is an exercise fatigue (physical fatigue) model, anti-fatigue action against physical fatigue would be confirmed if increase in the amount of spontaneous exercise is observed after the administration of the test substance. Such anti-fatigue action is considered to be involved in improving endurance and exercise performance.\nSix-week-old male Sprague Dawley rats were used as a test animal. On the day before the test was started, the rats were divided into five groups each having eight rats, and all of the rats were deprived of food since the morning of the test day. […] Thereafter, the rats were moved into a spontaneous exercise measuring device having an infrared sensor (Supermex, Muromachi Kikai Co., Ltd.), and an amount of spontaneous exercise was measured during a period of 0-2 hours (exploration) and a period of 2-14 hours (dark period). […]"}
{"compound": "C=C1CC[C@@H]2[C@](C)(CO)[C@H](O)CC[C@@]2(C)[C@@H]1C/C=C1/C(=O)OC[C@H]1O", "note": "[andrographolide]", "values": [{"measurement": "amount of spontaneous exercise", "result": "increase in the amount of spontaneous exercise was observed"}]}
